# Assays:
# [1] = target: 72 kDa type IV collagenase (Homo sapiens, UniProt P08253); assay: Inhibition of the Gelatinase-A enzyme was determined from purified NSO cells.
# [2] = target: T1, Interstitial collagenase (Homo sapiens, UniProt P03956); assay: Inhibition of the Collagenase enzyme was determined from purified NSO cells.
# T1 sequence (P03956 whole entry): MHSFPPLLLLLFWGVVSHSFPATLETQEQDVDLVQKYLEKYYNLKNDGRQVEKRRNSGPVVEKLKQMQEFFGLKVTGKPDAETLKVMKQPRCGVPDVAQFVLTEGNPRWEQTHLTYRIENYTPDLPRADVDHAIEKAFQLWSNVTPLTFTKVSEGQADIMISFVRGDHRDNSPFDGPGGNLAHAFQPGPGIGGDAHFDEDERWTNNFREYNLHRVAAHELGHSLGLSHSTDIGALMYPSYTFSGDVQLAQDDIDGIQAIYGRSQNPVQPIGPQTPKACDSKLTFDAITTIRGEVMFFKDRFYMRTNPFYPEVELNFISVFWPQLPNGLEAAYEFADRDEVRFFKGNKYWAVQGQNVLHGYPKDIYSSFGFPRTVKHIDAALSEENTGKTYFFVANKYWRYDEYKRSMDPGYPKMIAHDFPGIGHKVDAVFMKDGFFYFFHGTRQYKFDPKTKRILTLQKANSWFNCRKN
# [3] = target: Stromelysin-1 (Homo sapiens, UniProt P08254); assay: Inhibition of the Stromelysin enzyme was determined from purified NSO cells.
# Stromelysin-1, sequence (P08254 whole entry): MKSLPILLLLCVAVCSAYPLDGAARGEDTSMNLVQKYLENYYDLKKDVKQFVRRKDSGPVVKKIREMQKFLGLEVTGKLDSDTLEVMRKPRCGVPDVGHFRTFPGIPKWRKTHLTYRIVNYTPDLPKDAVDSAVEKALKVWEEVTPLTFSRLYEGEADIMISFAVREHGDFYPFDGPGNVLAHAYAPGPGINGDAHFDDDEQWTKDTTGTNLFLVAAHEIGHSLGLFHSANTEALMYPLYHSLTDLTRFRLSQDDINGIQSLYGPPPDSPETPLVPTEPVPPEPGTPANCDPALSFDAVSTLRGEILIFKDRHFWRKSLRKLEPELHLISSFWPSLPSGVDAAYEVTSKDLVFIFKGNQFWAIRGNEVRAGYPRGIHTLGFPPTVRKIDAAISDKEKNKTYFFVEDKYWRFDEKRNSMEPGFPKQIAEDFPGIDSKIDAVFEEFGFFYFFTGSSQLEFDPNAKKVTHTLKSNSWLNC
# 72 kDa type IV collagenase, sequence (P08253 whole entry): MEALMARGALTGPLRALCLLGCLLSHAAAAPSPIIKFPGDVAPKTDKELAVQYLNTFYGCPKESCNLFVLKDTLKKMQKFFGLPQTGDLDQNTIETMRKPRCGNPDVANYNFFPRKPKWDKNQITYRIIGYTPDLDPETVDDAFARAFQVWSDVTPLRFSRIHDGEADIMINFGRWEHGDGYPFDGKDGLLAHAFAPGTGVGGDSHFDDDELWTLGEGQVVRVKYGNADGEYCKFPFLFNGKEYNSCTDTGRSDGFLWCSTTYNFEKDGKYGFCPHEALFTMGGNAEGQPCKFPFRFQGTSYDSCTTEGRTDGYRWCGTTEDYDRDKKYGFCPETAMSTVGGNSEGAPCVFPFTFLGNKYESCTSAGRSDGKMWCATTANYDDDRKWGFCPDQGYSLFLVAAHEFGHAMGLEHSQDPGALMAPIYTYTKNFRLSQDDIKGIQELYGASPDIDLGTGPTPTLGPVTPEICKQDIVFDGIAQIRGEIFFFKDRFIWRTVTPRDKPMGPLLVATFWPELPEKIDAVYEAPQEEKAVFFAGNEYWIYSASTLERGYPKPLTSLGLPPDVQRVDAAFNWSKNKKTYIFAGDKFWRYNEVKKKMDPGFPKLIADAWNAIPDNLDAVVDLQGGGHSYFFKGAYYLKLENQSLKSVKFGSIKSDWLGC
Compound,Ki [1],Ki [2],Ki [3]
Cc1ccc(CCC[C@H](CC(=O)O)C(=O)N[C@@H](CC2CCCCC2)C(=O)NCCC(=O)O)cc1,3.82 nM,100000 nM,321 nM
O=C(N[C@@H](CC1CCCCC1)C(=O)NCCN1CCOCC1)[C@H](CCCc1ccccc1)CP(=O)(O)O,812 nM,100000 nM,8400 nM
Cc1ccc(CCC[C@H](CC(=O)O)C(=O)N[C@@H](CC2CCCCC2)C(=O)NCCCCN2CCOCC2)cc1,10.3 nM,55000 nM,358 nM
NC(=O)[C@H](CC1CCCCC1)NC(=O)[C@H](CCCc1ccccc1)CC(=O)O,123 nM,100000 nM,3120 nM
O=C(O)CCNC(=O)[C@H](CC1CCCCC1)NC(=O)[C@H](CCCc1ccccc1)CP(=O)(O)O,46.5 nM,22100 nM,952 nM
Cc1ccc(CCC[C@H](CC(=O)O)C(=O)N[C@@H](CC2CCCCC2)C(=O)NCCc2ccccc2)cc1,1 nM,22100 nM,472 nM
COc1ccc(CCC[C@H](CC(=O)O)C(=O)N[C@@H](CC2CCCCC2)C(=O)NCCc2ccc(S(N)(=O)=O)cc2)cc1,1.83 nM,10000 nM,1110 nM
NS(=O)(=O)c1ccc(CCNC(=O)[C@H](CC2CCCCC2)NC(=O)[C@H](CCCc2ccc(Cl)cc2)CC(=O)O)cc1,1.03 nM,55000 nM,358 nM
NS(=O)(=O)c1ccc(CCNC(=O)[C@H](CC2CCCCC2)NC(=O)[C@H](CCCc2ccccc2)CC(=O)O)cc1,6.4 nM,40200 nM,952 nM
O=C(N[C@@H](CC1CCCCC1)C(=O)NCCc1ccccc1)[C@H](CCCc1ccccc1)CP(=O)(O)O,18.9 nM,25000 nM,701 nM
COC(=O)CCNC(=O)[C@H](CC1CCCCC1)NC(=O)[C@H](CCCc1ccc(C)cc1)CC(=O)O,1.17 nM,41400 nM,353 nM
O=C(C[C@@H](CCCc1ccccc1)C(=O)N[C@@H](CC1CCCCC1)C(=O)NCCc1ccccc1)NO,0.06 nM,,
NC(=O)CCCNC(=O)[C@H](CC1CCCCC1)NC(=O)[C@H](CCCc1ccccc1)CC(=O)O,3.06 nM,28400 nM,1060 nM
Cc1ccc(CCC[C@H](CC(=O)O)C(=O)N[C@@H](CC2CCCCC2)C(=O)NCCc2ccc(S(N)(=O)=O)cc2)cc1,0.9 nM,47800 nM,384 nM
CC(C)Cc1ccc(CCC[C@H](CC(=O)O)C(=O)N[C@@H](CC2CCCCC2)C(=O)NCCc2ccccc2)cc1,157 nM,> 10000 nM,> 10000 nM
O=C(O)C[C@H](CCCc1ccccc1)C(=O)N[C@@H](CC1CCCCC1)C(=O)NCCc1ccccc1,,,20000 nM
Cc1ccc(CCC[C@H](CP(=O)(O)O)C(=O)N[C@@H](CC2CCCCC2)C(=O)NCCc2ccccc2)cc1 (stereo in doubt; form 1),366 nM,100000 nM,21200 nM
Cc1ccc(CCC[C@H](CP(=O)(O)O)C(=O)N[C@@H](CC2CCCCC2)C(=O)NCCc2ccccc2)cc1 (stereo in doubt; form 2),2.5 nM,17000 nM,277 nM

# Source: ChEMBL document CHEMBL1128022, “Potent and selective inhibitors of gelatinase-A 2. carboxylic and phosphonic acid derivatives” (Bioorg Med Chem Lett, 1994)
